In the NIST ThermoML archive (doi:10.1021/je0504459):
Numbers after ± are expanded uncertainties.

Test: xn = mol fraction of the nth substance listed
Settings: 101 kPa, Liquid; for speed of sound: Sing-around technique in a fixed-path interferometer

ClC(Cl)Cl [trichloromethane] + CCCCCCO
Settings	kinematic viscosity, 303.15 K [m2/s]	kinematic viscosity, 313.15 K [m2/s]	mass density, 303.15 K [kg/m3]	mass density, 313.15 K [kg/m3]	speed of sound, 303.15 K [m/s]	speed of sound, 313.15 K [m/s]
x1 = 0.0497	4.36e-06 ± 5.2e-08	3.21e-06 ± 3.9e-08	833.07 ± 0.59	825.31 ± 0.62	1271 ± 3	1238 ± 3
x1 = 0.1004	3.88e-06 ± 4.7e-08	2.89e-06 ± 3.6e-08	855.62 ± 0.61	847.51 ± 0.64	1253 ± 3	1220 ± 3
x1 = 0.15	3.45e-06 ± 4.2e-08	2.59e-06 ± 3.2e-08	878.54 ± 0.63	870.06 ± 0.66	1236 ± 3	1201 ± 3
x1 = 0.2006	3.04e-06 ± 3.7e-08	2.31e-06 ± 2.9e-08	902.79 ± 0.65	893.94 ± 0.68	1217 ± 3	1182 ± 3
x1 = 0.2506	2.67e-06 ± 3.3e-08	2.05e-06 ± 2.6e-08	927.71 ± 0.67	918.4 ± 0.7	1198 ± 3	1163 ± 3
x1 = 0.3005	2.34e-06 ± 2.9e-08	1.83e-06 ± 2.3e-08	953.48 ± 0.69	943.71 ± 0.72	1180 ± 3	1143 ± 3
x1 = 0.3497	2.04e-06 ± 2.6e-08	1.6e-06 ± 2e-08	980.04 ± 0.71	969.85 ± 0.74	1161 ± 3	1125 ± 3
x1 = 0.4004	1.77e-06 ± 2.2e-08	1.41e-06 ± 1.8e-08	1008.41 ± 0.74	997.66 ± 0.76	1142 ± 3	1105 ± 3
x1 = 0.4516	1.53e-06 ± 2e-08	1.23e-06 ± 1.6e-08	1038.38 ± 0.76	1027.09 ± 0.78	1123 ± 3	1086 ± 3
x1 = 0.4996	1.34e-06 ± 1.7e-08	1.09e-06 ± 1.5e-08	1067.63 ± 0.78	1055.84 ± 0.81	1106 ± 3	1069 ± 3
x1 = 0.552	1.14e-06 ± 1.5e-08	9.5e-07 ± 1.3e-08	1100.94 ± 0.81	1088.53 ± 0.83	1087 ± 3	1051 ± 2
x1 = 0.6	9.87e-07 ± 1.4e-08	8.33e-07 ± 1.2e-08	1133.01 ± 0.84	1120 ± 0.86	1070 ± 3	1034 ± 2
x1 = 0.654	8.52e-07 ± 1.2e-08	7.35e-07 ± 1.1e-08	1170.75 ± 0.87	1157 ± 0.89	1052 ± 2	1016 ± 2
x1 = 0.7001	7.46e-07 ± 1.1e-08	6.49e-07 ± 1e-08	1204.57 ± 0.9	1190.18 ± 0.92	1038 ± 2	1002 ± 2
x1 = 0.753	6.5e-07 ± 1e-08	5.82e-07 ± 1e-08	1245.39 ± 0.93	1230.25 ± 0.95	1023 ± 2	986 ± 2
x1 = 0.7992	5.82e-07 ± 1e-08	5.22e-07 ± 9e-09	1282.69 ± 0.96	1266.83 ± 0.98	1010 ± 2	974 ± 2
x1 = 0.8511	5.08e-07 ± 9e-09	4.7e-07 ± 9e-09	1327.07 ± 1	1310.35 ± 1	997 ± 2	961 ± 2
x1 = 0.8996	4.5e-07 ± 9e-09	4.26e-07 ± 9e-09	1370.59 ± 1	1352.95 ± 1.1	987 ± 2	950 ± 2
x1 = 0.9502	4.06e-07 ± 8e-09	3.81e-07 ± 8e-09	1418.68 ± 1.1	1400.1 ± 1.1	977 ± 2	941 ± 2
x1 = 1	3.63e-07 ± 8e-09	3.39e-07 ± 8e-09	1469.21 ± 1.1	1449.74 ± 1.1	969 ± 2	934 ± 2

ClC(Cl)Cl [trichloromethane] + CCCCCCCO
Settings	kinematic viscosity, 303.15 K [m2/s]	kinematic viscosity, 313.15 K [m2/s]	mass density, 303.15 K [kg/m3]	mass density, 313.15 K [kg/m3]	speed of sound, 303.15 K [m/s]	speed of sound, 313.15 K [m/s]
x1 = 0.0487	5.58e-06 ± 6.5e-08	4.17e-06 ± 5e-08	833.37 ± 0.59	825.81 ± 0.62	1296 ± 3	1262 ± 3
x1 = 0.1002	4.98e-06 ± 6e-08	3.74e-06 ± 4.5e-08	853.69 ± 0.61	845.75 ± 0.64	1277 ± 3	1244 ± 3
x1 = 0.1498	4.41e-06 ± 5.3e-08	3.34e-06 ± 4.1e-08	874.2 ± 0.63	865.8 ± 0.65	1260 ± 3	1226 ± 3
x1 = 0.2006	3.86e-06 ± 4.7e-08	2.95e-06 ± 3.6e-08	896.15 ± 0.64	887.32 ± 0.67	1241 ± 3	1207 ± 3
x1 = 0.2516	3.38e-06 ± 4.1e-08	2.61e-06 ± 3.2e-08	919.27 ± 0.66	909.96 ± 0.69	1222 ± 3	1187 ± 3
x1 = 0.3003	2.93e-06 ± 3.6e-08	2.29e-06 ± 2.9e-08	942.39 ± 0.68	932.57 ± 0.71	1204 ± 3	1168 ± 3
x1 = 0.3538	2.52e-06 ± 3.1e-08	1.99e-06 ± 2.5e-08	969.09 ± 0.7	958.73 ± 0.73	1183 ± 3	1147 ± 3
x1 = 0.4003	2.18e-06 ± 2.7e-08	1.75e-06 ± 2.2e-08	993.52 ± 0.72	982.67 ± 0.75	1165 ± 3	1129 ± 3
x1 = 0.4466	1.89e-06 ± 2.4e-08	1.54e-06 ± 2e-08	1019.1 ± 0.74	1007.69 ± 0.77	1147 ± 3	1111 ± 3
x1 = 0.5001	1.61e-06 ± 2e-08	1.32e-06 ± 1.7e-08	1050.23 ± 0.77	1038.22 ± 0.79	1126 ± 3	1091 ± 3
x1 = 0.5517	1.35e-06 ± 1.7e-08	1.13e-06 ± 1.5e-08	1082.09 ± 0.8	1069.43 ± 0.82	1107 ± 3	1072 ± 3
x1 = 0.6002	1.17e-06 ± 1.5e-08	1e-06 ± 1.4e-08	1113.83 ± 0.82	1100.51 ± 0.84	1089 ± 3	1054 ± 2
x1 = 0.6539	9.76e-07 ± 1.3e-08	8.45e-07 ± 1.2e-08	1151.17 ± 0.85	1137.19 ± 0.87	1070 ± 3	1035 ± 2
x1 = 0.6994	8.51e-07 ± 1.2e-08	7.41e-07 ± 1.1e-08	1184.84 ± 0.88	1170.19 ± 0.9	1054 ± 2	1019 ± 2
x1 = 0.7449	7.4e-07 ± 1.1e-08	6.59e-07 ± 1e-08	1220.55 ± 0.91	1205.18 ± 0.93	1039 ± 2	1004 ± 2
x1 = 0.8	6.33e-07 ± 1e-08	5.69e-07 ± 1e-08	1266.83 ± 0.95	1250.5 ± 0.97	1022 ± 2	987 ± 2
x1 = 0.8465	5.58e-07 ± 1e-08	5.09e-07 ± 9e-09	1308.67 ± 0.98	1291.64 ± 1	1008 ± 2	972 ± 2
x1 = 0.9003	4.81e-07 ± 9e-09	4.45e-07 ± 9e-09	1360.81 ± 1	1342.82 ± 1.1	993 ± 2	957 ± 2
x1 = 0.9521	4.2e-07 ± 8e-09	3.88e-07 ± 8e-09	1414.86 ± 1.1	1396.16 ± 1.1	979 ± 2	943 ± 2
x1 = 1	3.63e-07 ± 8e-09	3.39e-07 ± 8e-09	1469.21 ± 1.1	1449.74 ± 1.1	969 ± 2	934 ± 2

ClC(Cl)Cl [trichloromethane] + CCCCCO
Settings	kinematic viscosity, 303.15 K [m2/s]	kinematic viscosity, 313.15 K [m2/s]	mass density, 303.15 K [kg/m3]	mass density, 313.15 K [kg/m3]	speed of sound, 303.15 K [m/s]	speed of sound, 313.15 K [m/s]
x1 = 0.0603	3.29e-06 ± 3.8e-08	2.56e-06 ± 3e-08	838.65 ± 0.48	830.58 ± 0.51	1241 ± 3	1206 ± 3
x1 = 0.1009	3.02e-06 ± 3.5e-08	2.35e-06 ± 2.8e-08	859.39 ± 0.5	850.98 ± 0.53	1226 ± 3	1191 ± 3
x1 = 0.1484	2.7e-06 ± 3.1e-08	2.12e-06 ± 2.5e-08	884.22 ± 0.52	875.42 ± 0.55	1209 ± 3	1173 ± 3
x1 = 0.1999	2.37e-06 ± 2.8e-08	1.88e-06 ± 2.2e-08	911.83 ± 0.55	902.58 ± 0.58	1190 ± 3	1154 ± 3
x1 = 0.2517	2.08e-06 ± 2.5e-08	1.66e-06 ± 2e-08	940.34 ± 0.57	930.67 ± 0.6	1171 ± 3	1135 ± 3
x1 = 0.2999	1.83e-06 ± 2.2e-08	1.48e-06 ± 1.8e-08	967.6 ± 0.6	957.42 ± 0.63	1153 ± 3	1117 ± 2
x1 = 0.3492	1.61e-06 ± 2e-08	1.31e-06 ± 1.6e-08	996.23 ± 0.62	985.58 ± 0.65	1135 ± 3	1099 ± 2
x1 = 0.3998	1.39e-06 ± 1.7e-08	1.15e-06 ± 1.5e-08	1026.46 ± 0.65	1015.29 ± 0.68	1118 ± 2	1082 ± 2
x1 = 0.45	1.22e-06 ± 1.5e-08	1.02e-06 ± 1.3e-08	1057.32 ± 0.68	1045.59 ± 0.71	1101 ± 2	1065 ± 2
x1 = 0.5004	1.07e-06 ± 1.4e-08	9.03e-07 ± 1.2e-08	1089.21 ± 0.71	1076.95 ± 0.74	1084 ± 2	1048 ± 2
x1 = 0.5498	9.31e-07 ± 1.3e-08	8.02e-07 ± 1.2e-08	1121.44 ± 0.75	1108.55 ± 0.77	1068 ± 2	1032 ± 2
x1 = 0.6001	8.27e-07 ± 1.2e-08	7.22e-07 ± 1.1e-08	1155.25 ± 0.78	1141.78 ± 0.81	1053 ± 2	1017 ± 2
x1 = 0.6513	7.24e-07 ± 1.1e-08	6.43e-07 ± 1e-08	1190.8 ± 0.82	1176.65 ± 0.84	1038 ± 2	1002 ± 2
x1 = 0.7003	6.57e-07 ± 1e-08	5.85e-07 ± 1e-08	1225.93 ± 0.85	1211.12 ± 0.88	1025 ± 2	989 ± 2
x1 = 0.751	5.85e-07 ± 1e-08	5.3e-07 ± 9e-09	1263.53 ± 0.89	1247.97 ± 0.91	1012 ± 2	977 ± 2
x1 = 0.8	5.3e-07 ± 9e-09	4.83e-07 ± 9e-09	1301.08 ± 0.93	1284.81 ± 0.95	1001 ± 2	966 ± 2
x1 = 0.8503	4.87e-07 ± 9e-09	4.48e-07 ± 9e-09	1341.02 ± 0.97	1323.97 ± 0.99	991 ± 2	956 ± 2
x1 = 0.9004	4.42e-07 ± 9e-09	4.11e-07 ± 8e-09	1382.24 ± 1	1364.37 ± 1	982 ± 2	947 ± 2
x1 = 0.952	4.05e-07 ± 8e-09	3.75e-07 ± 8e-09	1426.4 ± 1.1	1407.56 ± 1.1	974 ± 2	938 ± 2
x1 = 1	3.63e-07 ± 8e-09	3.39e-07 ± 8e-09	1469.21 ± 1.1	1449.74 ± 1.1	969 ± 2	934 ± 2
